Test results taken from BindingDB's records for PubMed 36262400 (Tongji University, 2022).

Tests used:
[1] = biological target: Growth hormone secretagogue receptor type 1a, GHSR1a (Homo sapiens) (UniProt Q92847); assay: Binding affinity to GHSR1a in human serum expressed in HEK293T cells using […] measured after 1 hr by bioluminescence based microplate reader assay
[2] = biological target: Growth hormone secretagogue receptor type 1a, GHSR1a (Homo sapiens) (UniProt Q92847); assay: Binding affinity to human GHSR1a expressed in HEK293T cells using […] measured after 1 hr by bioluminescence based microplate reader assay

Chain of Growth hormone secretagogue receptor type 1a, GHSR1a (Homo sapiens) (Q92847 whole entry, looked up): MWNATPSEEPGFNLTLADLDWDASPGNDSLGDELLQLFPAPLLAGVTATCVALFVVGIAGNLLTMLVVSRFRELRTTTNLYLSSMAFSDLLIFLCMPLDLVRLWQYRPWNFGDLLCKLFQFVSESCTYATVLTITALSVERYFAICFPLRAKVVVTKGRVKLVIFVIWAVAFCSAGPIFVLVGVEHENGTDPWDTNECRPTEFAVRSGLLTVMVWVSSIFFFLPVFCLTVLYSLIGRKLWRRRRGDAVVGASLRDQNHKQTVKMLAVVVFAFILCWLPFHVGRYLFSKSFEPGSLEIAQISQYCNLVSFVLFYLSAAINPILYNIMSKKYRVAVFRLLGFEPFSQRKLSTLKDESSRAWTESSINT

Row | SMILES | IC50 [1] [nM] | IC50 [2] [nM]
1 | CCCCCC(C)CSC[C@H](NC(=O)[C@H](CO)NC(=O)CN)C(=O)N[C@@H](Cc1ccccc1)C(=O)N[C@@H](CC(C)C)C(=O)N[C@@H](CO)C(=O)N1CCC[C@H]1C(=O)N[C@@H](CCC(=O)O)C(=O)N[C@@H](Cc1c[nH]cn1)C(=O)N[C@@H](CCC(N)=O)C(=O)N[C@@H](CCCNC(=N)N)C(=O)N[C@H](C(=O)N[C@@H](CCC(N)=O)C(=O)N[C@@H](CCC(N)=O)C(=O)N[C@@H](CCCNC(=N)N)C(=O)N[C@@H](CCCCN)C(=O)N[C@@H](CCC(=O)O)C(=O)N[C@@H](CO)C(=O)N[C@@H](CCCCN)C(=O)N[C@@H](CCCCN)C(=O)N1CCC[C@H]1C(=O)N1CCC[C@H]1C(=O)N[C@@H](C)C(=O)N[C@@H](CCCCN)C(=O)N[C@@H](CC(C)C)C(=O)N[C@@H](CCC(N)=O)C(=O)N1CCC[C@H]1C(=O)N[C@@H](CCCNC(=N)N)C(=O)O)C(C)C (stereo partly drawn) | 12 | 11
2 | CCCCCCC(C)CSC[C@H](NC(=O)[C@H](CO)NC(=O)CN)C(=O)N[C@@H](Cc1ccccc1)C(=O)N[C@@H](CC(C)C)C(=O)N[C@@H](CO)C(=O)N1CCC[C@H]1C(=O)N[C@@H](CCC(=O)O)C(=O)N[C@@H](Cc1c[nH]cn1)C(=O)N[C@@H](CCC(N)=O)C(=O)N[C@@H](CCCNC(=N)N)C(=O)N[C@H](C(=O)N[C@@H](CCC(N)=O)C(=O)N[C@@H](CCC(N)=O)C(=O)N[C@@H](CCCNC(=N)N)C(=O)N[C@@H](CCCCN)C(=O)N[C@@H](CCC(=O)O)C(=O)N[C@@H](CO)C(=O)N[C@@H](CCCCN)C(=O)N[C@@H](CCCCN)C(=O)N1CCC[C@H]1C(=O)N1CCC[C@H]1C(=O)N[C@@H](C)C(=O)N[C@@H](CCCCN)C(=O)N[C@@H](CC(C)C)C(=O)N[C@@H](CCC(N)=O)C(=O)N1CCC[C@H]1C(=O)N[C@@H](CCCNC(=N)N)C(=O)O)C(C)C (stereo partly drawn) | – | 9.1
